“Also recorded” adds a separate entry of the source. Like-named read-outs stand apart in the source and are kept apart here.
Legend:
Human recombinant sEH [1] = molecular target: T1, Human recombinant sEH (Homo sapiens, UniProt P34913); assay: sEH assay (fluorescent substrate hydrolysis, inhibitory activity and IC50); assay type: biochemical; settings: for inhibition at 100 µM: read-out: Inhibitory Activity at 100 μM (%); for IC50: sEH inhibition
T1 construct: purchased Cayman Chemical (Ann Arbor, MI, USA) 10011669
T1 sequence (P34913 1-555): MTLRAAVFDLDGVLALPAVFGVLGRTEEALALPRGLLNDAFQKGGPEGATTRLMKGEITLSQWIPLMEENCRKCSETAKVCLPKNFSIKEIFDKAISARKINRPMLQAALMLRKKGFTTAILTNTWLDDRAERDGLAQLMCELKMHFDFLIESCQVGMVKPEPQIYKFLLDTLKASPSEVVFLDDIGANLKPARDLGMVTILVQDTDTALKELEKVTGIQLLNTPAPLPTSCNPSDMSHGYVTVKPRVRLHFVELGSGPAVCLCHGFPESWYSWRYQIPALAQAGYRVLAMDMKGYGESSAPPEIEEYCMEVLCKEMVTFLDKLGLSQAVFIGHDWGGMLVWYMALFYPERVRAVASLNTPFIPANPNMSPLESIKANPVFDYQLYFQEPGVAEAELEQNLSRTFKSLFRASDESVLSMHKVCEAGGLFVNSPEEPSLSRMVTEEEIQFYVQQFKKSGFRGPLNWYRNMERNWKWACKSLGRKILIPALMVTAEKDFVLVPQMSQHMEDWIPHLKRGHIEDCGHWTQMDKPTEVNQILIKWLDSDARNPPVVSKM

Human recombinant sEH [2] = molecular target: T1, Human recombinant sEH; assay: sEH enzyme kinetics (Lineweaver–Burk and Dixon plots); assay type: biochemical; settings: for Binding Mode: Lineweaver–Burk plot; for Ki: Dixon plot analysis
[3] = compound at 100 μM, tested three times

| Compound | inhibition at 100 µM (Human recombinant sEH [1]; [3]) | sEH inhibitory effect (in words) (Human recombinant sEH [1]; conclusion statement) | IC50 (Human recombinant sEH [1]) | Ki (Human recombinant sEH [2]) | Inhibitory Activity at 100 μM (%) (Human recombinant sEH [1]; [3]) | Binding Mode (Human recombinant sEH [2]) | sEH inhibitory effect (in words) (Human recombinant sEH [1]) | inhibition at 100 µM (Human recombinant sEH [1]) |
| --- | --- | --- | --- | --- | --- | --- | --- | --- |
| liquiritin apioside [Compound 3] |  |  |  |  | 57.6 ± 1.1% | competitive inhibitors |  |  |
| CC(C)=CCc1cc(-c2coc3cc(O)c(CC=C(C)C)c(O)c3c2=O)cc(O)c1O [Compound 11, isoangustone A] | 68.4 ± 3.1% | moderate inhibitory effects | 85.7 ± 1.2 µM | 75.6 µM |  | noncompetitive inhibitors; also recorded: non-competitive |  |  |
| O=C1C[C@@H](c2ccc(O)cc2)Oc2cc(O)ccc21 [Compound 1, liquiritigenin] |  |  | 40.1 ± 1.2 µM | 63.1 µM |  | noncompetitive inhibitors; also recorded: non-competitive | moderate inhibitory effects | 61.5 ± 1.2% |
| isoliquiritin apioside [Compound 6] |  |  |  |  | 79.3 ± 1.4% | Noncompetitive |  |  |
| O=C(/C=C/c1ccc(O[C@@H]2O[C@H](CO)[C@@H](O)[C@H](O)[C@H]2O)cc1)c1ccc(O)cc1O [Compound 5, isoliquiritin] | 80.2 ± 0.3% |  | 25.8 ± 0.2 µM | 48.8 µM |  | Noncompetitive |  |  |
| CC1(C)[C@@H](O[C@H]2O[C@H](C(=O)O)[C@@H](O)[C@H](O)[C@H]2O[C@@H]2O[C@H](C(=O)O)[C@@H](O)[C@H](O)[C@H]2O)CC[C@]2(C)[C@H]3C(=O)C=C4[C@@H]5C[C@@](C)(C(=O)O)CC[C@]5(C)CC[C@@]4(C)[C@]3(C)CC[C@@H]12 [Glycyrrhizin, reference compound] | 18.4% | lacked such an effect |  |  |  |  |  |  |
| COc1c(CC=C(C)C)c(O)cc2oc(=O)c3c4ccc(O)cc4oc3c12 [Compound 9, glycyrol] | 69.5 ± 0.5% |  | 42.5 ± 1.5 µM | 41.1 µM |  | noncompetitive inhibitors; also recorded: non-competitive |  |  |

Continued, in another order:

| inhibition at 100 µM (Human recombinant sEH [1]; [3]) | sEH inhibitory effect (in words) (Human recombinant sEH [1]; conclusion statement) | IC50 (Human recombinant sEH [1]) | Ki (Human recombinant sEH [2]) | Compound | Inhibitory Activity at 100 μM (%) (Human recombinant sEH [1]; [3]) | Binding Mode (Human recombinant sEH [2]) | sEH inhibitory effect (in words) (Human recombinant sEH [1]) | inhibition at 100 µM (Human recombinant sEH [1]) |
| --- | --- | --- | --- | --- | --- | --- | --- | --- |
| 46.8 ± 0.8% |  |  |  | O=C1C[C@@H](c2ccc(O[C@@H]3O[C@H](CO)[C@@H](O)[C@H](O)[C@H]3O)cc2)Oc2cc(O)ccc21 [Compound 2, liquiritin] |  |  |  |  |
| 60.7 ± 1.3% |  | 35.7 ± 0.7 µM | 54.4 µM | COc1ccc(-c2coc3cc(O[C@@H]4O[C@H](CO)[C@@H](O)[C@H](O)[C@H]4O)ccc3c2=O)cc1 [Compound 8, ononin] |  | competitive inhibitors |  |  |
| > 100% | potent effect | 1.9 ± 0.2 µM | 2 µM | COc1c(CC=C(C)C)c(O)cc2oc(=O)c(-c3ccc(O)cc3O)cc12 [Compound 10, glycycoumarin] |  | competitive inhibitors |  |  |
|  |  | 17.6 ± 0.6 µM | 24.2 µM | O=C(/C=C/c1ccc(O)cc1)c1ccc(O)cc1O [Compound 4, isoliquiritigenin] |  | Noncompetitive |  |  |
| 85.1 ± 0.3% |  | 16.2 ± 0.3 µM | 19.8 µM | COc1cc(O)ccc1C(=O)/C=C/c1ccc(O)cc1 [Compound 7, 2′-methoxyisoliquiritigenin] |  | competitive inhibitors |  |  |

Reference: PMC10095357, “Inhibition of Soluble Epoxide Hydrolase Activity by Components of Glycyrrhiza uralensis” (International Journal of Molecular Sciences, 2023)
